Measured values published in patent US20040209956A1 (priority 2003, published 2004).
Each block holds one compound with its values, some of them ahead of it.

Columns and labels:
Format in all cases: physicochemical
[1] = Solubility and solid form in DMF/water/acetonitrile ternary solvent system; conditions: one molar equivalent excess maleic acid
Protocol: The final set of solubility studies were conducted in ternary solvent systems of dimethyl formamide (DMF)/water/acetonitrile (ACN). This system was studied because most of the early success in crystallizing S-[2-[(1-Iminoethyl)amino]ethyl]-2-methyl-L-cysteine maleate salt was found in this solvent mixture. […] Experiments were only conducted for the last four of these compositions at 25° C., but the data was collected for the compositions at 5° C. Supernatant was analyzed after four and nineteen days. Equilibrated solids were also isolated and characterized after nineteen days from most experiments (see Table 5). […] Table 5, lists concentration data in wt % S-[2-[(1-Iminoethyl)amino]ethyl]-2-methyl-L-cysteine from all the experiments at 5 and 25° C. after four and nineteen days of equilibration. […] There is also some temperature dependence for solubility across all the experiments. When the data is analyzed at a fixed ACN content, it seems that the solubility initially decreases before increasing as the DMF content of the system is increased at the expense of water. This trend seems to hold for both 70 and 90% ACN. […] In summary, though this solvent system is complex, it does offer regions of solvent composition conducive to crystallization process design especially for form II.

[2] = Stability of free zwitterion at different pH by ion pairing gradient HPLC (Example 6); conditions: for Purity At The Time Of Titration: a few hours after preparation; for Purity One Week After Titration: after 1 week
Protocol: Amberlite IRA400 (Cl) resin was rinsed with 3M HCl, water, and then 3M NaOH. Aliquots were 100 ml per 10 g of resin. This procedure was repeated 3 times in order to clean the resin and in order to generate the OH form. A final rinse with water was carried out until the conductivity of the eluting water was 2 μS. The resin was then used to titrate 40 ml of a 50 mg/ml solution of S-[2-[(1-Iminoethyl)amino]ethyl]-2-methyl-L-cysteine di-hydrochloride. The concentration is expressed in terms of zwitterion equivalents. Aliquots were taken throughout the titration, filtered and analyzed by HPLC. Subsamples of the aliquots were saved for a second HPLC analysis 1 week after the titration was performed in order to assess the stability of the samples. Additional aliquots were taken for Cl analysis using an ion selective electrode. The pH was also monitored throughout the titration.
HPLC analyses were performed using an ion pairing gradient method.
Pump A: 20 mM KH2PO4, 10 mM Pentane sulfonic acid, adjusted to pH=3 with phosphoric acid
Gradient: 0% B at 0 min, 26% B at 15 min, 0% B at 15.1 min

[3] = HPLC stability of anion exchange titrated samples (Example 5); conditions: product at pH of 11 within a few hours
Protocol: 3.3 g of a sample containing about 1 g of S-[2-[(1-Iminoethyl)amino]ethyl]-2-methyl-L-cysteine di-hydrochloride was diluted to 20 g. Aliquots of prewashed Amberlite IRA400 (OH) resin was added to the solution and samples were periodically withdrawn through a syringe filter. Intermediate resin filtrations were performed at pH of 7.1 and 8.8 by filtering off the resin in solution and then continuing to add fresh resin to the filtrate. This was done to drive the chloride removal equilibrium and minimize product adsorption. After the final pH of 11.2 was attained, the resin was filtered off. The starting materials, intermediate samples and final filtrate were analyzed.
The resulting samples were analyzed by HPLC. No difference was seen between the HPLC traces of the starting material and product at pH of 11 within a few hours.

physchem = experiment: physchem
Text: The parent S-[2-[(1-Iminoethyl)amino]ethyl]-2-methyl-L-cysteine molecule has 3 ionizable groups and can exist in 4 ionization states.
At low pH, the molecule exists as a +2 charged free acid, with the carboxylic acid, amine and amidine moieties protonated. This is the ionization state for the dihydrochloride salt.
As the pH is increased, the carboxylic acid group is the first group to deprotonate, and this produces a net charge on the molecule of +1. If the pH increase is generated by addition of sodium hydroxide to S-[2-[(1-Iminoethyl)amino]ethyl]-2-methyl-L-cysteine, the […] is formed. Other bases would make their corresponding salt forms. If the increase in pH is due to removal of chloride ions by anion exchange processing, the product is the monohydrochloride salt with no sodium or other counterions.
A positive charge still resides on the amidine, and a negative charge still resides on the carboxyl group. In contrast, if such material is made by the addition of sodium hydroxide to the dihydrochloride, the resulting product is the monohydrochloro sodium salt, mixed with one equivalent of sodium chloride. The material prepared by the anion exchange resin approach is the free zwitterion.
Further increases in pH lead to deprotonation of the amidine ion (pKa˜12.5). The molecule in this pH range is the free base and acid salt. […]

[4] = Pseudo-titration in water with IRA-400(OH) anion exchange resin, samples assayed by HPLC (Example 3); conditions: for pH of slower rise representative of the pK: pseudo-titration in water, not true equilibrium
Protocol: 60 g of Amberlite IRA400 (OH) resin was prewashed with 4.7 percent (by weight) ammonium hydroxide (50 ml of 28 percent ammonium hydroxide, 250 ml deionized water), followed by extensive washing with deionized water. The final conductivity was 6.1 μS.
Samples containing about 0.9 g of S-[2-[(1-Iminoethyl)amino]ethyl]-2-methyl-L-cysteine di-hydrochloride in 142 ml HCl/water solution, were concentrated on a rotary evaporator at 60° C. to an oil. To the oil, diluted to 60 ml with deionized water, was added aliquots of 0.5 g of washed anion exchange resin while stirring. At five minutes after each aliquot of resin was added, the solution pH was measured and a sample removed through a syringe filter. A total of 9 g of anion exchange resin was added. The final pH was 10.8. The resin was removed by filtration and the filtrate was concentrated to an oil by rotary evaporation at 60° C.; no solids formed. The starting material, final filtrate and all intermediate samples were assayed by HPLC and ion chromatography for chloride.
The diamond (solid line) is pH and square (dashed line) is S-[2-[(1-Iminoethyl)amino]ethyl]-2-methyl-L-cysteine (percent initial, by ion chromatography). […] The diamond (solid line) is pH and triangle (broken line) is chloride (by ion chromatography).
These curves are not true titration curves since samples were withdrawn during the progress of the reaction, and since true equilibrium was not attained before the increments of resin were added. Nevertheless, the graphs of FIG. 2 and FIG. 3 illustrate the expected trends. As resin is added to the S-[2-[(1-Iminoethyl)amino]ethyl]-2-methyl-L-cysteine solution the pH rises with change in slope around pH's of 2, 9 and 11. The pH's of slower rise are representative of the pK's of the carboxylic acid, amine and amidine functional groups, respectively. Above a pH of 10, the S-[2-[(1-Iminoethyl)amino]ethyl]-2-methyl-L-cysteine concentration in solution decreases. At this point, the S-[2-[(1-Iminoethyl)amino]ethyl]-2-methyl-L-cysteine is gaining a net negative charge and is binding to the resin. […] The final chloride content is approximately 0.04 mol equivalents.

[5] = Moisture sorption of Form I; conditions: 90% R.H. and 25° C.
Text: FIG. 12 is a plot of a moisture sorption study of S-[2-[(1-Iminoethyl)amino]ethyl]-2-methyl-L-cysteine maleate.

- Solubility in DMF/water/acetonitrile ([1]; 5/5/90 D/W/A, 5° C., 4 Days): 1.15 Wt %
- Solubility in DMF/water/acetonitrile ([1]; 5/5/90 D/W/A, 5° C., 19 Days): 1.16 Wt %
- Solubility in DMF/water/acetonitrile ([1]; 6.3/3.4/90 D/W/A, 5° C., 4 Days): 1.35 Wt %
- Solubility in DMF/water/acetonitrile ([1]; 6.3/3.4/90 D/W/A, 5° C., 19 Days): 1.02 Wt %
- Solubility in DMF/water/acetonitrile ([1]; 6.3/3.4/90 D/W/A, 25° C., 4 Days): 2.13 Wt %
- Solubility in DMF/water/acetonitrile ([1]; 6.3/3.4/90 D/W/A, 25° C., 19 Days): 1.74 Wt %
- Solubility in DMF/water/acetonitrile ([1]; 7.5/2.5/90 D/W/A, 5° C., 4 Days): 4.19 Wt %
- Solubility in DMF/water/acetonitrile ([1]; 7.5/2.5/90 D/W/A, 5° C., 19 Days): 2.12 Wt %
- Solubility in DMF/water/acetonitrile ([1]; 7.5/2.5/90 D/W/A, 25° C., 4 Days): 2.53 Wt %
- Solubility in DMF/water/acetonitrile ([1]; 7.5/2.5/90 D/W/A, 25° C., 19 Days): 2.45 Wt %
- Solubility in DMF/water/acetonitrile ([1]; 15/15/70 D/W/A, 5° C., 4 Days): 3.31 Wt %
- Solubility in DMF/water/acetonitrile ([1]; 15/15/70 D/W/A, 5° C., 19 Days): 5.71 Wt %
- Solubility in DMF/water/acetonitrile ([1]; 20/10/70 D/W/A, 5° C., 4 Days): 2.91 Wt %
- Solubility in DMF/water/acetonitrile ([1]; 20/10/70 D/W/A, 5° C., 19 Days): 1.75 Wt %
- Solubility in DMF/water/acetonitrile ([1]; 20/10/70 D/W/A, 25° C., 4 Days): 3.46 Wt %
- Solubility in DMF/water/acetonitrile ([1]; 20/10/70 D/W/A, 25° C., 19 Days): 2.33 Wt %
- Solubility in DMF/water/acetonitrile ([1]; 22.5/7.5/70 D/W/A, 5° C., 4 Days): 3.06 Wt %
- Solubility in DMF/water/acetonitrile ([1]; 22.5/7.5/70 D/W/A, 5° C., 19 Days): 2.75 Wt %
- Solubility in DMF/water/acetonitrile ([1]; 22.5/7.5/70 D/W/A, 25° C., 4 Days): 4.90 Wt %
- Solubility in DMF/water/acetonitrile ([1]; 22.5/7.5/70 D/W/A, 25° C., 19 Days): 7.38 Wt %
Compound: CC(=N)NCCSC[C@](C)(N)C(=O)O.O=C(O)/C=C\C(=O)O [S-[2-[(1-Iminoethyl)amino]ethyl]-2-methyl-L-cysteine maleate]

- Purity At The Time Of Titration ([2]; Sample pH 2.13): 98.6 Peak Area %
- Purity One Week After Titration ([2]; Sample pH 2.13): 98.4 Peak Area %
- Purity At The Time Of Titration ([2]; Sample pH 3.83): 98.7 Peak Area %
- Purity One Week After Titration ([2]; Sample pH 3.83): 98.1 Peak Area %
- Purity At The Time Of Titration ([2]; Sample pH 8.48): 98.5 Peak Area %
- Purity One Week After Titration ([2]; Sample pH 8.48): 97.4 Peak Area %
- Purity At The Time Of Titration ([2]; Sample pH 9.37): 98.5 Peak Area %
- Purity One Week After Titration ([2]; Sample pH 9.37): 97.2 Peak Area %
- Purity At The Time Of Titration ([2]; Sample pH 9.78): 98.3 Peak Area %
- Purity One Week After Titration ([2]; Sample pH 9.78): 97.2 Peak Area %
- Purity At The Time Of Titration ([2]; Sample pH 10.27): 98.3 Peak Area %
- Purity One Week After Titration ([2]; Sample pH 10.27): 96.4 Peak Area %
- Purity At The Time Of Titration ([2]; Sample pH 10.83): 96.6 Peak Area %
- Purity One Week After Titration ([2]; Sample pH 10.83): 94.7 Peak Area %
- Purity At The Time Of Titration ([2]; Sample pH 11.6): 98.3 Peak Area %
- Purity One Week After Titration ([2]; Sample pH 11.6): 92.4 Peak Area %
- Purity At The Time Of Titration ([2]; Sample pH 11.75): 97.9 Peak Area %
- Purity One Week After Titration ([2]; Sample pH 11.75): 89.2 Peak Area %
- Purity At The Time Of Titration ([2]; Sample pH .94): 98.0 Peak Area %
- Purity One Week After Titration ([2]; Sample pH .94): 98.3 Peak Area %
- Difference between HPLC traces of starting material and product [3]: No difference
- pKa (physchem): ~8.4
- pH of slower rise representative of the pK ([4]; amidine group): ~11
- pH of slower rise representative of the pK ([4]; amine group): ~9
- pH of slower rise representative of the pK ([4]; carboxylic acid group): ~2
- Degradation by HPLC assay of the samples ([4]; samples titrated up to final pH 10.8, Example 3): no degradation
Compound: CC(=N)NCCSC[C@](C)(N)C(=O)O [S-[2-[(1-Iminoethyl)amino]ethyl]-2-methyl-L-cysteine]

- Water absorbed by weight [5]: less than one percent
Compound: S-[2-[(1-Iminoethyl)amino]ethyl]-2-methyl-L-cysteine maleate crystalline salt Form I
